Experimental data reported in patent US8859743B2, “Controlling microbial contamination in alcoholic fermentation process” (Arch Chemicals, Inc., priority 2009, dated 2014).

What was measured:
Format in all cases: cell-based
Wild yeast = assay: Count of wild yeast in treated fermentative must (WLN+)
Saccharomyces cerevisiae = assay: Count of fermentative yeast in treated fermentative must (WLN)
Lactobacilli = assay: Count of Lactobacilli in treated fermentative must (MRS)
bacteria = assay: Count of other bacteria in treated fermentative must (TSA)
[1] = in relation to the control sample 4

CC[C@@]1([C@@H]2O[C@@H]([C@H]3O[C@@](O)(CO)[C@H](C)C[C@@H]3C)C[C@@H]2C)CC[C@H]([C@]2(C)CC[C@]3(C[C@H](O)[C@@H](C)[C@@H]([C@@H](C)[C@@H](OC)[C@H](C)C(=O)O)O3)O2)O1 [Sample 01, monensin]
WLN+ UFC/mL Wild yeast (Wild yeast; fermentative must after treatment, blank 9.5 × 10^6): 2 × 10^4 UFC/mL
reduction in the wild yeast (Wild yeast; [1]): about 3 log
WLN UFC/mL Saccharomyces cerevisiae (Saccharomyces cerevisiae; fermentative must after treatment, blank 1.3 × 10^6): 1 × 10^5 UFC/mL
reduction in the fermentative yeast (Saccharomyces cerevisiae; [1]): about 1 log
MRS UFC/mL Lactobacilli (Lactobacilli; fermentative must after treatment, blank 3.1 × 10^6): 2.5 × 10^2 UFC/mL
reduction in the Lactobacilli (Lactobacilli; [1]): about 4 log
TSA UFC/mL bacteria (bacteria; fermentative must after treatment, blank 6 × 10^5): 7 × 10^3 UFC/mL
reduction in other bacteria (bacteria; [1]): about 2 log
